In the NIST ThermoML archive (doi:10.1016/j.tca.2018.03.018):
Numbers after ± are expanded uncertainties.

Assays:
[1] = Crystal; DSC
[2] = Molar enthalpy of transition or fusion; conditions: Crystal; DSC

Question: Which Triple point temperature [1] does the source give for `CCCCCCCCCCCCCCCCCC(=O)O` [octadecanoic acid] here?
Answer: The Triple point temperature was 325.66 ± 1 K.

Question: And the “Molar enthalpy of transition or fusion” value [2]?
Answer: The value was 12 ± 0.335 kcal/mol.
